The source of these data is EPA's ToxValDB 9.5 (doi:10.2903/j.efsa.2010.1856).

Data set [1] deals with Anas platyrhynchos.
Data set [2] has as its system Anatidae. The note with it: short-term; oral; feed; mortality.
In data set [3] the test system is Apis mellifera. The following applies: acute; duration: 48 hours; oral; unspecified; mortality.
Data set [4] concerns Canidae. The following applies: chronic, duration: 1 years, oral, Dog Other.
For data set [5], the system named is Colinus virginianus. The note with it: reproduction developmental.
The test system of data set [6] is Coturnix japonica. The following applies: acute, oral, mortality.
Data set [7] has as its system Daphnia magna. The note with it: chronic/long-term; duration: 21 days; reproduction.
Data set [8] has as its system Oncorhynchus mykiss. The note with it: mortality.
The subject of data set [9] is Phasianus sp. The following applies: acute; oral; unspecified; mortality.
The subject of data set [10] is Rattus norvegicus. The note with it: chronic; duration: 2 years; histopathology: nonneoplastic.
Data set [11] concerns Tagia sp.
The subject of data set [12] is Aphidius rhopalosiphi. Put plainly: LR50; higher = less toxic. The following applies: not reported; mortality.
Data set [13] concerns Typhlodromus pyri. In words: LR50; higher = less toxic. The note with it: not reported; mortality.

Converted amounts (≈) assume the structure as drawn. Some results are limits rather than exact numbers.

With `CC1OC(C)OC(C)OC(C)O1` (stereo not drawn) [2,4,6,8-Tetramethyl-1,3,5,7-tetroxocane], the LD50 was 196 mg/kg-day in [1] (acute, oral, unspecified, mortality); over 87.5 µg/piece in data set [3]; 170 mg/kg-day in [6]; 262 mg/kg-day in [9]. Further, the NOEC is 175 mg/kg in [1] (reproductive); 500 mg/kg-day in [5]; 90 mg/L in data set [7]; 37.5 mg/L in [8] (chronic/long-term, duration: 21 days); 32 mg/kg in data set [11] (chronic/long-term, reproduction). For the same compound, the LC50 in data set [2] is 3450 mg/kg; in data set [6] (diet) it was 3460 mg/kg; in [8] (acute, duration: 96 hours), 75 µg/mL (≈ 426 µM); in [11] (acute, duration: 14 days, mortality) it was over 1000 mg/kg. For the same compound, the NOAEL was determined as 10 mg/kg-day in data set [4] (mortality), 30 mg/kg-day in [4] (neurology) and 2 mg/kg-day in [10]. For the same compound, the LR50 in [12] and in data set [13] was over 350 g/ha in each case.
